Patent publication US9890147B2 (BAYER PHARMA AKTIENGESELLSCHAFT, priority 2012, dated 2018)

Key:
MOLM-13 cells = assay: Cell proliferation assay (alamarBlue), MOLM-13; format: cell-based; settings: Homo sapiens, 96 hours incubation, inhibition of cell proliferation
In short: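 Cells in RPMI1640/10% FCS read by alamarBlue fluorescence (ex 530, em 590 nm) after overnight 37 °C incubation, then treated at 1E-5 to 1E-8 M for 96 h. Pre-treatment values subtracted from endpoint values and compared with buffer-only wells; IC50 is 50% proliferation inhibition.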

BRD4 (BD1) = target: T1, BRD4 (BD1) (Homo sapiens, UniProt O60885); assay: Binding assay BRD4/acetylated peptide H4 (TR-FRET protein-protein interaction assay)
T1 construct: with relatively long constructs also being possible, preferably amino acids 44-168; made in house; host or cells: E. coli
In short: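 His6-BRD4 BD1 (aa 67-152, E. coli), usually 10 nM, with biotinylated tetra-acetylated H4 peptide in HEPES pH 7.5 buffer; 11 compound concentrations 0.1 nM–20 μM in duplicate, 10 min preincubation, 1 h at 22 °C then ≥3 h at 4 °C. TR-FRET 665/620 ratio; IC50 by 4-parameter fit.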

Row | SMILES | IC50 (MOLM-13 cells) [nM] | IC50 (BRD4 (BD1)) [nM]
1 | CNC(=O)N1N=C(c2ccc(N3CCN(CC(F)F)CC3)cc2)c2cc(OC)c(OC)cc2CC1C (racemic) [Example 193, (±)-1-{4-[4-(2,2-difluoroethyl)piperazin-1-yl]phenyl}-7,8-dimethoxy-N,4-dimethyl-4,5-dihydro-3H-2,3-benzodiazepine-3-carboxamide] | 110 | 90
2 | CCOc1cc2c(cc1OCC)C(c1ccc(N3CCN(C)CC3)cc1)=NN(C(=O)NC)C(C)C2 (racemic) [Example 200, (±)-7,8-Diethoxy-N,4-dimethyl-1-[4-(4-methylpiperazin-1-yl)phenyl]-4,5-dihydro-3H-2,3-benzodiazepine-3-carboxamide] | 180 | 500
3 | CNC(=O)N1N=C(c2ccc(N3CCN(C)CC3)cc2)c2cc(Cl)c(OC(F)(F)F)cc2CC1C (racemic) [Example 213, (±)-8-chloro-N,4-dimethyl-1-[4-(4-methylpiperazin-1-yl)phenyl]-7-(trifluoromethoxy)-4,5-dihydro-3H-2,3-benzodiazepine-3-carboxamide] | 860 | 360
4 | CNC(=O)N1N=C(c2ccc(N3CCS(=O)(=O)CC3)cc2)c2cc(N3CCS(=O)(=O)CC3)c(OC(F)(F)F)cc2CC1C (racemic) [Example 215, (±)-8-(1,1-dioxidothiomorpholin-4-yl)-1-[4-(1,1-dioxidothiomorpholin-4-yl)phenyl]-N,4-dimethyl-7-(trifluoromethoxy)-4,5-dihydro-3H-2,3-benzodiazepine-3-carboxamide] | 2270 | 380
5 | CNC(=O)N1N=C(c2ccc(N3CCN(CCO)CC3)cc2)c2ccc(OC(F)(F)F)cc2CC1C (racemic) [Example 218, (±)-1-{4-[4-(2-hydroxyethyl)piperazin-1-yl]phenyl}-N,4-dimethyl-7-(trifluoromethoxy)-4,5-dihydro-3H-2,3-benzodiazepine-3-carboxamide] | 300 | 880
6 | CNC(=O)N1N=C(c2ccc(N3CCN(C)CC3)cc2)c2cc(OC)c(OC(F)(F)F)cc2CC1C (racemic) [Example 219, (±)-8-methoxy-N,4-dimethyl-1-[4-(4-methylpiperazin-1-yl)phenyl]-7-(trifluoromethoxy)-4,5-dihydro-3H-2,3-benzodiazepine-3-carboxamide] | 570 | 370
7 | CCC1Cc2cc(OC)c(OC)cc2C(c2ccc(-c3cn(C)nn3)cc2)=NN1C(=O)NC (racemic) [Example 222, (±)-4-ethyl-7,8-dimethoxy-N-methyl-1-[4-(1-methyl-1H-1,2,3-triazol-4-yl)phenyl]-4,5-dihydro-3H-2,3-benzodiazepine-3-carboxamide] | 2120 | 960
8 | CNC(=O)N1N=C(c2ccc(Cl)cc2)c2ccc(N3CCOC3=O)cc2CC1C (racemic) [Example 230, (±)-1-(4-chlorophenyl)-N,4-dimethyl-7-(2-oxo-1,3-oxazolidin-3-yl)-4,5-dihydro-3H-2,3-benzodiazepine-3-carboxamide] | 230 | 240
9 | CNC(=O)N1N=C(c2ccc(Cl)cc2)c2ccc(-c3cn(C)nn3)cc2CC1C (racemic) [Example 243, (±)-1-(4-chlorophenyl)-N,4-dimethyl-7-(1-methyl-1H-1,2,3-triazol-4-yl)-4,5-dihydro-3H-2,3-benzodiazepine-3-carboxamide] | 340 | 320
10 | COc1cc2c(cc1OC)C(c1ccc(N3CCN(C)CC3)cc1)=NN(C(C)=O)C(C)C2 (racemic) [Example 245, (±)-1-{7,8-Dimethoxy-4-methyl-1-[4-(4-methylpiperazin-1-yl)phenyl]-4,5-dihydro-3H-2,3-benzodiazepin-3-yl}ethanone] | 860 | 620
11 | COc1cc2c(cc1OC)C(c1ccc(-c3c(C)noc3C)cc1)=NN(C(C)=O)C(C)C2 (racemic) [Example 246, (±)-1-{1-[4-(3,5-dimethyl-1,2-oxazol-4-yl)phenyl]-7,8-dimethoxy-4-methyl-4,5-dihydro-3H-2,3-benzodiazepin-3-yl}ethanone] | 2060 | 330
12 | CNC(=O)N1N=C(c2ccc(-c3nnc(C)o3)cc2)c2cc(OC)c(OC)cc2CC1C (racemic) [Example 247, (±)-7,8-Dimethoxy-N,4-dimethyl-1-[4-(5-methyl-1,3,4-oxadiazol-2-yl)phenyl]-4,5-dihydro-3H-2,3-benzodiazepine-3-carboxamide] | 570 | 190
13 | CNC(=O)N1N=C(c2ccc(-c3nc(C)no3)cc2)c2cc(OC)c(OC)cc2CC1C (racemic) [Example 248, (±)-7,8-Dimethoxy-N,4-dimethyl-1-[4-(3-methyl-1,2,4-oxadiazol-5-yl)phenyl]-4,5-dihydro-3H-2,3-benzodiazepine-3-carboxamide] | 140 | 190

More lines, now with the values ahead:

Row | IC50 (MOLM-13 cells) [nM] | IC50 (BRD4 (BD1)) [nM] | SMILES
14 | 270 | 90 | CNC(=O)N1N=C(c2ccc(N3C[C@@H](C)NC[C@@H]3C)cc2)c2cc(OC)c(OC)cc2CC1C (mixture of isomers) [Example 192, (±)-1-{4-[(2S,5R)-2,5-dimethylpiperazin-1-yl]phenyl}-7,8-dimethoxy-N,4-dimethyl-4,5-dihydro-3H-2,3-benzodiazepine-3-carboxamide]
15 | 3310 | 840 | CCC1Cc2cc(OC)c(OC)cc2C(c2ccc(N3CCN(S(C)(=O)=O)CC3)cc2)=NN1C(=O)NC (racemic) [Example 203, (±)-4-ethyl-7,8-dimethoxy-N-methyl-1-{4-[4-(methylsulphonyl)piperazin-1-yl]phenyl}-4,5-dihydro-3H-2,3-benzodiazepine-3-carboxamide]
16 | 170 | 250 | CNC(=O)N1N=C(c2ccc(N3CCS(=O)(=O)CC3)cc2)c2cc(Cl)c(OC(F)(F)F)cc2CC1C (racemic) [Example 210, (±)-8-chloro-1-[4-(1,1-dioxidothiomorpholin-4-yl)phenyl]-N,4-dimethyl-7-(trifluoromethoxy)-4,5-dihydro-3H-2,3-benzodiazepine-3-carboxamide]
17 | 820 | 310 | CNC(=O)N1N=C(c2ccc(N3CCC(O)CC3)cc2)c2cc(Cl)c(OC(F)(F)F)cc2CC1C (racemic) [Example 212, (±)-8-chloro-1-[4-(4-hydroxypiperidin-1-yl)phenyl]-N,4-dimethyl-7-(trifluoromethoxy)-4,5-dihydro-3H-2,3-benzodiazepine-3-carboxamide]
18 | 1030 | 520 | CNC(=O)N1N=C(c2ccc(Cl)cc2)c2cc(N3CCS(=O)(=O)CC3)c(OC(F)(F)F)cc2CC1C (racemic) [Example 216, (±)-1-(4-chlorophenyl)-8-(1,1-dioxidothiomorpholin-4-yl)-N,4-dimethyl-7-(trifluoromethoxy)-4,5-dihydro-3H-2,3-benzodiazepine-3-carboxamide]
19 | 2400 | 490 | CCC1Cc2cc(OC)c(OC)cc2C(c2ccc(-c3c(C)nn(C)c3C)cc2)=NN1C(=O)NC (racemic) [Example 220, (±)-4-ethyl-7,8-dimethoxy-N-methyl-1-[4-(1,3,5-trimethyl-1H-pyrazol-4-yl)phenyl]-4,5-dihydro-3H-2,3-benzodiazepine-3-carboxamide]
20 | 100 | 30 | CNC(=O)N1N=C(c2ccc(N3CCC(O)CC3)cc2)c2cc(OC(F)(F)F)ccc2CC1C (racemic) [Example 251, (±)-1-[4-(4-hydroxy-1-piperidinyl)phenyl]-N,4-dimethyl-8-(trifluoromethoxy)-4,5-dihydro-3H-2,3-benzodiazepine-3-carboxamide]
